Patent US7855213B2 (AstraZeneca AB, priority 2006, dated 2010)
pIC50: −log10 of the molar value.

Biological target: T1, human β-Secretase (Homo sapiens, UniProt P56817)
T1 construct: The soluble part of the human β-Secretase (AA 1-AA 460) was cloned; made in house
Experiment: TR-FRET assay
Type: biochemical

T1 sequence (P56817 22-460): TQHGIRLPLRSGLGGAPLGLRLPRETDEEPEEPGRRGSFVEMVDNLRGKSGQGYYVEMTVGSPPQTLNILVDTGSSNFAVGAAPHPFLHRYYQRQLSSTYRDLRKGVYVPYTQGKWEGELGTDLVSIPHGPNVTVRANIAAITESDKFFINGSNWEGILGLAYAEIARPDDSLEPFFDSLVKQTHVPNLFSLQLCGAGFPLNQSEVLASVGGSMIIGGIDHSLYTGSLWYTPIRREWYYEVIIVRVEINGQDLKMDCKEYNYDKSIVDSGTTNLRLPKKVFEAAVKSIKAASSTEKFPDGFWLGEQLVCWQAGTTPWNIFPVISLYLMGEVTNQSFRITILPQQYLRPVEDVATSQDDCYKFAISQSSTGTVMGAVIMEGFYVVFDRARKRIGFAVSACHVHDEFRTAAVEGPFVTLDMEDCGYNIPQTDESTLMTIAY

pIC50 | SMILES
5.49 | NC1=NC(c2cccc(OS(=O)(=O)c3c(F)cccc3F)c2)(c2cc(Cl)nc(Cl)c2)c2ccccc21 (stereo not shown) [Example 133, 3-[3-Amino-1-(2,6-dichloropyridin-4-yl)-1H-isoindol-1-yl]phenyl 2,6-difluorobenzenesulfonate]
6.46 | NC1=NC(c2cccc(OS(=O)(=O)C(F)(F)F)c2)(c2ccc(F)c(-c3cncnc3)c2)c2ccccc21 (stereo not shown) [Example 134, 3-[3-Amino-1-(4-fluoro-3-pyrimidin-5-ylphenyl)-1H-isoindol-1-yl]phenyl trifluoromethanesulfonate]
6.57 | NC1=NC(c2cccc(OS(=O)(=O)C(F)(F)F)c2)(c2ccc(F)c(-c3cccnc3F)c2)c2ccccc21 (stereo not shown) [Example 135]
6.34 | NC1=NC(c2ccc(OS(=O)(=O)C(F)(F)F)cc2)(c2ccc(F)c(-c3cncnc3)c2)c2ccccc21 (stereo not shown) [Example 136, 4-[3-Amino-1-(4-fluoro-3-pyrimidin-5-ylphenyl)-1H-isoindol-1-yl]phenyl trifluoromethanesulfonate]
